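Method: 48-hour compound exposure of cells in 96-well plates, five concentrations, linear interpolation of endpoints. GI50: concentration for 50% inhibition of growth.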 The source made the active and inactive calls. Rule as the data show it: active = GI50 up to about 1.1 µM and inactive = higher.
Columns and labels:
Assay in all cases: NCI tumour cell line growth inhibition, 48 h
[1] = system: 786-0
[2] = system: A549
[3] = system: ACHN
[4] = system: COLO 205
[5] = system: HCC 2998
[6] = system: HCT-116
[7] = system: HOP-62
[8] = system: HOP-92
[9] = system: MOLT-4
[10] = system: NCI-H23
[11] = system: OVCAR-8
[12] = system: SNB-19
[13] = system: SNB-75
[14] = system: TK-10
[15] = system: U-251
[16] = system: UACC-257
[17] = system: NCI-H460
[18] = system: MDA-MB-231
[19] = system: PC-3

Compound | GI50 [1] | GI50 [2] | GI50 [3] | GI50 [4] | GI50 [5] | GI50 [6] | GI50 [7] | GI50 [8] | GI50 [9] | GI50 [10] | GI50 [11] | GI50 [12] | GI50 [13] | GI50 [14] | GI50 [15] | GI50 [16] | GI50 [17] | GI50 [18] | GI50 [19]
CN(C)CCCNC(=O)c1cccc2nc3ccccc3nc12 | 51.1 µM (inactive) | 12.2 µM (inactive) | 7.43 µM (inactive) | 6.95 µM (inactive) | 14.8 µM (inactive) | 4.83 µM (inactive) | 19.9 µM (inactive) | 50.4 µM (inactive) | 9.77 µM (inactive) | 14.8 µM (inactive) | 12.6 µM (inactive) | 19.8 µM (inactive) | 35.8 µM (inactive) | 27.7 µM (inactive) | 19.1 µM (inactive) | 13.2 µM (inactive) |  |  | 
CCOC(=O)COS(=O)(=O)C(F)(F)F | 35.4 µM (inactive) | > 100 µM (inactive) | > 100 µM (inactive) | 38 µM (inactive) | > 100 µM (inactive) | 34.5 µM (inactive) | > 100 µM (inactive) | > 100 µM (inactive) | > 100 µM (inactive) | > 100 µM (inactive) | > 100 µM (inactive) | > 100 µM (inactive) | > 100 µM (inactive) | > 100 µM (inactive) | > 100 µM (inactive) | > 100 µM (inactive) | 41.9 µM (inactive) |  | 
O=C(/C=C/c1ccc(Cl)c(Cl)c1)c1ccc(F)cc1 | 15.5 µM (inactive) | 42.8 µM (inactive) | 17.8 µM (inactive) | 23.3 µM (inactive) | 16.6 µM (inactive) | 7.67 µM (inactive) | > 100 µM (inactive) | 32.2 µM (inactive) | 15.8 µM (inactive) | 29.8 µM (inactive) | 16.7 µM (inactive) | 16.8 µM (inactive) | 22.9 µM (inactive) | 25.4 µM (inactive) | 13 µM (inactive) | 23.8 µM (inactive) | 23.6 µM (inactive) |  | 
CP1(=O)CCCCC1 | > 100 µM (inactive) | > 100 µM (inactive) | > 100 µM (inactive) | > 100 µM (inactive) | > 100 µM (inactive) | > 100 µM (inactive) | > 100 µM (inactive) | > 100 µM (inactive) | > 100 µM (inactive) | > 100 µM (inactive) | > 100 µM (inactive) | > 100 µM (inactive) | > 100 µM (inactive) | > 100 µM (inactive) | > 100 µM (inactive) | > 100 µM (inactive) | > 100 µM (inactive) |  | 
O=C1C2C3C=CC(C2C(=O)N1CN1CCSCC1)C1C2C(=O)N(CN4CCSCC4)C(=O)C2C31 (stereo not drawn) | > 52.4 µM (inactive) | 62.1 µM (inactive) | > 77.6 µM (inactive) | 56.5 µM (inactive) | > 100 µM (inactive) | > 41.2 µM (inactive) | > 100 µM (inactive) | > 75.5 µM (inactive) | > 78.5 µM (inactive) | > 100 µM (inactive) | > 94.2 µM (inactive) | > 100 µM (inactive) | 45.3 µM (inactive) | > 100 µM (inactive) | > 72.1 µM (inactive) | > 100 µM (inactive) | 31.2 µM (inactive) |  | 
Clc1ccc(CCN2CCOCC2)c(Cl)c1 | > 100 µM (inactive) | > 100 µM (inactive) | > 100 µM (inactive) | > 100 µM (inactive) | > 100 µM (inactive) | > 100 µM (inactive) | > 100 µM (inactive) | > 100 µM (inactive) | > 100 µM (inactive) | > 100 µM (inactive) | > 100 µM (inactive) | > 100 µM (inactive) | 17.6 µM (inactive) |  | > 100 µM (inactive) | > 100 µM (inactive) | > 100 µM (inactive) |  | 
CCOc1ccc(NC(=O)C2=C(C)NC(C)=C(C(=O)Nc3ccc(OCC)cc3)C2c2ccc(O)c(OC)c2)cc1 | 48.9 µM (inactive) | > 100 µM (inactive) | 55.1 µM (inactive) | 96.8 µM (inactive) | 2.35 µM (inactive) |  | 29.5 µM (inactive) | 20.4 µM (inactive) | 28.1 µM (inactive) | > 100 µM (inactive) | 87.3 µM (inactive) | > 100 µM (inactive) | 14.3 µM (inactive) | > 100 µM (inactive) | 55.6 µM (inactive) | 47.8 µM (inactive) | 80.4 µM (inactive) |  | 
CC1C(O)=C(O)c2ccccc2N1O (stereo not drawn) | > 100 µM (inactive) | > 100 µM (inactive) | > 100 µM (inactive) | > 100 µM (inactive) | > 100 µM (inactive) | 49.8 µM (inactive) | 73.3 µM (inactive) | 31.9 µM (inactive) | 77.6 µM (inactive) | 54.7 µM (inactive) | > 100 µM (inactive) | > 100 µM (inactive) | > 100 µM (inactive) | > 100 µM (inactive) | > 100 µM (inactive) | 83.2 µM (inactive) | > 100 µM (inactive) |  | 
CCCCCCNC(=O)CCN(C(=O)O)S(=O)(=O)c1ccc(NC(=O)c2ccccc2)cc1 | > 96.4 µM (inactive) | > 45.7 µM (inactive) | > 100 µM (inactive) | 24.8 µM (inactive) | > 100 µM (inactive) | 39 µM (inactive) | > 100 µM (inactive) | > 100 µM (inactive) | > 42.9 µM (inactive) | > 100 µM (inactive) | > 61.2 µM (inactive) | > 100 µM (inactive) | > 100 µM (inactive) | > 100 µM (inactive) | 20 µM (inactive) | > 48.9 µM (inactive) | 27.6 µM (inactive) |  | 
CC1=NN(C(=O)Nc2ccc(Cl)cc2)C(=O)C2CCC(=O)N12 (stereo not drawn) | 88.7 µM (inactive) | 49.3 µM (inactive) | 5.73 µM (inactive) | > 100 µM (inactive) | > 100 µM (inactive) | > 100 µM (inactive) | > 100 µM (inactive) | > 100 µM (inactive) | 53 µM (inactive) | 74.1 µM (inactive) | > 100 µM (inactive) | > 100 µM (inactive) | > 100 µM (inactive) | > 100 µM (inactive) | > 100 µM (inactive) | 49.3 µM (inactive) | 28.3 µM (inactive) |  | 
Cc1ccc(CCNC(=S)SCC(NC(=O)CCC(N)C(=O)O)C(=O)NCC(=O)O)cc1 (stereo not drawn) | 0.385 µM (active) | 3.57 µM (inactive) | 2.02 µM (inactive) | 2.51 µM (inactive) | 2.04 µM (inactive) | 2.17 µM (inactive) | 2.96 µM (inactive) | 1.17 µM (inactive) | 1.23 µM (inactive) | 2.6 µM (inactive) | 2 µM (inactive) | 2.17 µM (inactive) | 0.435 µM (active) | 2.84 µM (inactive) | 1.87 µM (inactive) | 1.99 µM (inactive) | 2.61 µM (inactive) |  | 
C=C1c2nc3ccccc3n2C=C(c2ccc(Cl)cc2)N1c1ccccc1 | 13.3 µM (inactive) | 14.1 µM (inactive) | 12.3 µM (inactive) | 29.6 µM (inactive) | 13.3 µM (inactive) | 14 µM (inactive) |  | 20.7 µM (inactive) | > 100 µM (inactive) | 11.7 µM (inactive) | 9.51 µM (inactive) | 6.56 µM (inactive) | 3.5 µM (inactive) | 12.4 µM (inactive) | 18.7 µM (inactive) | 18.7 µM (inactive) | 12.4 µM (inactive) | 27.2 µM (inactive) | 26.4 µM (inactive)
Cc1cc2c(cc1C)[n+]([O-])c(C(=O)CC(=O)C(=O)Nc1c(C(C)C)cccc1C(C)C)c(C)[n+]2[O-] | > 100 µM (inactive) | > 100 µM (inactive) | > 100 µM (inactive) | > 100 µM (inactive) | > 100 µM (inactive) | > 100 µM (inactive) | > 100 µM (inactive) | > 100 µM (inactive) | > 100 µM (inactive) | > 100 µM (inactive) | > 100 µM (inactive) | > 100 µM (inactive) | > 100 µM (inactive) | > 100 µM (inactive) | > 100 µM (inactive) | > 100 µM (inactive) | > 100 µM (inactive) |  | 
C[C@@H](NC1CCC[C@H]1O)c1ccccc1 (stereo partly drawn) | > 100 µM (inactive) | > 100 µM (inactive) | > 100 µM (inactive) | > 100 µM (inactive) | > 100 µM (inactive) | > 100 µM (inactive) | > 100 µM (inactive) | > 100 µM (inactive) | > 100 µM (inactive) |  | > 100 µM (inactive) | > 100 µM (inactive) | > 100 µM (inactive) | > 100 µM (inactive) | > 100 µM (inactive) | > 100 µM (inactive) | > 100 µM (inactive) |  | 
Nc1c(C(=O)Nc2ccccc2)[n+]([O-])c2ccccc2[n+]1[O-] | 13.6 µM (inactive) | 25.1 µM (inactive) | 16.3 µM (inactive) | 15.5 µM (inactive) | 17.6 µM (inactive) |  | 19.1 µM (inactive) | 16.7 µM (inactive) | 18.7 µM (inactive) | 12.5 µM (inactive) | 36.8 µM (inactive) | 15.5 µM (inactive) | 13 µM (inactive) | 24.7 µM (inactive) | 12.9 µM (inactive) | 17.9 µM (inactive) | 14.9 µM (inactive) |  | 
CN(C)CC1CC/C(=C\c2ccc(Cl)c(Cl)c2)C1=O (stereo not drawn) | 11.7 µM (inactive) | > 100 µM (inactive) | > 45.1 µM (inactive) | 32.9 µM (inactive) | > 40.8 µM (inactive) | 24.3 µM (inactive) | > 58.2 µM (inactive) | 17.7 µM (inactive) | 4.76 µM (inactive) | 20.6 µM (inactive) | 25.6 µM (inactive) | 37.3 µM (inactive) | > 41.7 µM (inactive) | 13.2 µM (inactive) | > 42.3 µM (inactive) | 24.7 µM (inactive) | 17.4 µM (inactive) |  | 
